Data published in the NIST ThermoML archive (doi:10.1021/je100864e).

Assay: mn = molality of the nth substance listed, in mol/kg
Conditions: 101 kPa, Liquid

O=C([O-])CC(O)(CC(=O)[O-])C(=O)O.[Na+].[Na+] [disodium hydrogen citrate] + O
mass density [kg/m3]
Conditions	288.15 K	293.15 K	298.15 K	303.15 K	308.15 K
m1 = 0.0095	1000.55	999.632	998.455	997.044	995.414
m1 = 0.0114	1000.84	999.92	998.74	997.324	995.691
m1 = 0.0133	1001.13	1000.21	999.021	997.605	995.97
m1 = 0.015	1001.38	1000.46	999.268	997.849	996.213
m1 = 0.0172	1001.71	1000.78	999.588	998.164	996.524
m1 = 0.0187	1001.93	1000.99	999.8	998.374	996.735
m1 = 0.021	1002.28	1001.35	1000.15	998.719	997.077
m1 = 0.0229	1002.56	1001.62	1000.42	998.99	997.344
m1 = 0.0267	1003.12	1002.18	1000.97	999.532	997.881
m1 = 0.0307	1003.73	1002.77	1001.56	1000.12	998.461
m1 = 0.0344	1004.28	1003.32	1002.1	1000.65	998.99
m1 = 0.0374	1004.73	1003.76	1002.54	1001.09	999.421
m1 = 0.057	1007.64	1006.63	1005.38	1003.9	1002.21
m1 = 0.0771	1010.58	1009.54	1008.25	1006.75	1005.03
m1 = 0.0953	1013.22	1012.15	1010.84	1009.31	1007.58
m1 = 0.1157	1016.16	1015.05	1013.71	1012.16	1010.4
m1 = 0.1332	1018.67	1017.54	1016.17	1014.59	1012.82
m1 = 0.1542	1021.64	1020.48	1019.09	1017.48	1015.68
m1 = 0.1773	1024.9	1023.7	1022.26	1020.63	1018.81
m1 = 0.1964	1027.57	1026.33	1024.88	1023.22	1021.38
m1 = 0.2144	1030.07	1028.81	1027.33	1025.66	1023.8
m1 = 0.2229	1031.25	1029.97	1028.48	1026.8	1024.93
m1 = 0.2509	1035.09	1033.78	1032.26	1030.54	1028.64
m1 = 0.283	1039.47	1038.11	1036.55	1034.8	1032.87
m1 = 0.2965	1041.3	1039.92	1038.34	1036.58	1034.63
m1 = 0.3375	1046.82	1045.39	1043.77	1041.96	1039.98
